Earlier results, collected in article PMC7587962, “Evaluation of Cytotoxicity and α-Glucosidase Inhibitory Activity of Amide and Polyamino-Derivatives of Lupane Triterpenoids” (Molecules, 2020).

How the values were obtained:
Design in all cases: method as in PMID 25405285
Conditions in all cases: standard drugs used by NCI as control; cited from earlier work
RPMI-8226 = system: RPMI-8226
OVCAR-4 = system: OVCAR-4
U251 = system: U251

COc1cccc2c1C(=O)c1c(O)c3c(c(O)c1C2=O)C[C@@](O)(C(=O)CO)C[C@@H]3O[C@H]1C[C@H](N)[C@H](O)[C@H](C)O1 [DRB, doxorubicin]
GI50 (RPMI-8226): 80 nM
GI50 (OVCAR-4): 370 nM
GI50 (U251): 40 nM
